Source: patent US8729095B2, “3-(biaryloxy)propionic acid derivatives for prevention and/or treatment of thromboembolic diseases” (Daiichi Sankyo Company, Limited, priority 2009, dated 2014)

Assays:
[1] = tested on: platelet aggregation induced by ADP in human platelet-rich plasma (PRP); experiment: Human platelet aggregation inhibitory activity (ADP-induced, platelet-rich plasma); type: cell-based; settings: 8 min, ADP final concentration 20 μM, maximum aggregation rate, measured for 8 minutes
Description: A blood collecting syringe containing 1/10 volume of a 3.8% sodium citrate solution was used to collect blood from radial vein of a healthy person. The collected blood was centrifuged at 180×g at room temperature for 10 minutes to separate the supernatant (platelet-rich plasma; PRP). After PRP was separately collected, the remaining blood was centrifuged at 1,600×g for 10 minutes to separately collect platelet-poor plasma (PPP) of the upper layer. PRP was left at rest at 16° C. for 30 minutes, and subsequently used for measurement.
200 μL of the separately collected PRP was dispensed into a cuvette for the aggregation test, and 1 μL of dimethylsulfoxide (control) or a test compound solution diluted with dimethylsulfoxide was added, followed by incubation at 37° C. for 2 minutes. Subsequently, 2 μL of 2 mM ADP was added (final concentration 20 μM) to induce platelet aggregation.
Platelet aggregation was measured for 8 minutes using an aggregometer (MCM HEMA TRACER 313M; MC MEDICAL, INC.). With the light transmittance rate of PPP being set as an aggregation value of 100%, the maximum aggregation rate was determined for each concentration of the test compounds to calculate IC50 values.

[2] = tested on: platelet aggregation induced by ADP in rat platelet-rich plasma (PRP); experiment: Platelet aggregation inhibitory activity during oral administration in a rat (ex vivo, ADP-induced); settings: male Wistar rats, 1 mg/10 ml/kg orally, blood collected 4 hours after administration, ADP final concentration 3 μM, vs. control PRP (solvent only), read-out: Inhibition Rates (%)
Description: 1 mg/10 ml/kg of the test compound was orally administered by gavage to male rats (Slc: Wistar, age 8 to 9 weeks) that had been fasted overnight. 4 hours after administration, a syringe containing 1/10 volume of a 3.13% sodium citrate solution was used to collect blood from the abdominal aorta of a rat under anesthesia. From the collected blood, platelet-rich plasma (PRP) and platelet-poor plasma (PPP) were prepared according to the method described in the method for measuring human platelet aggregation inhibitory activity. PRP was left at rest at 16° C. for 30 minutes, and subsequently used for measurement.
200 μL of the separately collected PRP was dispensed into a cuvette for the aggregation test, followed by incubation at 37° C. for 2 minutes, and subsequently 2 μL of 0.3 mM ADP was added (final concentration 3 μM) to induce platelet aggregation.
Platelet aggregation was measured for 8 minutes using an aggregometer (MCM HEMA TRACER 313M; MC MEDICAL, INC.). With the light transmittance rate of PPP being set as an aggregation value of 100%, the maximum aggregation rate of PRP was determined, and compared with the maximum aggregation rate of control PRP (rat administered only with a solvent) to calculate inhibition rates.

| Structure (SMILES) | IC50 [1] [µM] | inhibition at 1 mg/kg [2] [%] |
| --- | --- | --- |
| C[C@H](CC(=O)O)Oc1ccc(F)cc1-c1ccc(C(=O)N2CCC(N3C(=O)[C@H](C)Oc4ncc(Cl)cc43)CC2)c(F)c1 [Example 29, (3R)-3-{[4′-({4-[(3S)-7-Chloro-3-methyl-2-oxo-2,3-dihydro-1H-pyrido[2,3-b][1,4]oxazin-1-yl]piperidin-1-yl}carbonyl)-3′,5-difluorobiphenyl-2-yl]oxy}butanoic acid] | 4.3 | 75 |
| C[C@@H]1Oc2ncc(Cl)cc2N(C2CCN(C(=O)c3ccc(-c4ccccc4OC[C@H](C)C(=O)O)cc3F)CC2)C1=O [Example 24, (2S)-3-{[4′-({4-[(3S)-7-Chloro-3-methyl-2-oxo-2,3-dihydro-1H-pyrido[2,3-b][1,4]oxazin-1-yl]piperidin-1-yl}carbonyl)-3′-fluorobiphenyl-2-yl]oxy}-2-methylpropanoic acid] | 3.1 | 44 |
| C[C@H](CC(=O)O)Oc1ccc(F)cc1-c1cnc(C(=O)N2CCC(N3C(=O)C(C)(C)Oc4ncc(Cl)cc43)CC2)c(F)c1 [Example 42, (3R)-3-[2-(6-{[4-(7-Chloro-3,3-dimethyl-2-oxo-2,3-dihydro-1H-pyrido[2,3-b][1,4]oxazin-1-yl)piperidin-1-yl]carbonyl}-5-fluoropyridin-3-yl)-4-fluorophenoxy]butanoic acid] | 1.4 | 54 |
| C[C@H](CC(=O)O)Oc1ccccc1-c1cc(F)c(C(=O)N2CCC(N3C(=O)C(C)(C)Oc4ncc(Cl)cc43)CC2)cc1F [Example 34, (3R)-3-[(4′-{[4-(7-Chloro-3,3-dimethyl-2-oxo-2,3-dihydro-1H-pyrido[2,3-b][1,4]oxazin-1-yl)piperidin-1-yl]carbonyl}-2′,5′-difluorobiphenyl-2-yl)oxy]butanoic acid] | 2.3 | 55 |
| CC[C@H](CC(=O)O)Oc1ccccc1-c1cnc(C(=O)N2CCC(N3C(=O)C(C)(C)Oc4ncc(Cl)cc43)CC2)c(F)c1 [Example 41, (3R)-3-[2-(6-{[4-(7-Chloro-3,3-dimethyl-2-oxo-2,3-dihydro-1H-pyrido[2,3-b][1,4]oxazin-1-yl)piperidin-1-yl]carbonyl}-5-fluoropyridin-3-yl)phenoxy]pentanoic acid] | 5.7 | 56 |
| C[C@@H]1Oc2ncc(Cl)cc2N(C2CCN(C(=O)c3ccc(-c4ccccc4OCC(C)(C)C(=O)O)cc3F)CC2)C1=O [Example 2, 3-{[4′-({4-[(3S)-7-Chloro-3-methyl-2-oxo-2,3-dihydro-1H-pyrido[2,3-b][1,4]oxazin-1-yl]piperidin-1-yl}carbonyl)-3′-fluorobiphenyl-2-yl]oxy}-2,2-dimethylpropanoic acid] | 3.5 | 66 |
| C[C@H](CC(=O)O)Oc1cc(F)ccc1-c1ccc(C(=O)N2CCC(N3C(=O)C(C)(C)Oc4ncc(Cl)cc43)CC2)c(F)c1 [Example 35, (3R)-3-[(4′-{[4-(7-Chloro-3,3-dimethyl-2-oxo-2,3-dihydro-1H-pyrido[2,3-b][1,4]oxazin-1-yl)piperidin-1-yl]carbonyl}-3′,4-difluorobiphenyl-2-yl)oxy]butanoic acid] | 3.6 | 96 |
| C[C@H](CC(=O)O)Oc1ccccc1-c1ccc(C(=O)N2CCC(N3C(=O)C(C)(C)Oc4ncc(C#N)cc43)CC2)c(F)c1 [Example 52, (3R)-3-[(4′-{[4-(7-Cyano-3,3-dimethyl-2-oxo-2,3-dihydro-1H-pyrido[2,3-b][1,4]oxazin-1-yl)piperidin-1-yl]carbonyl}-3′-fluorobiphenyl-2-yl)oxy]butanoic acid] | 2.3 | 71 |
| C[C@H](CC(=O)O)Oc1ccc(F)cc1-c1cnc(C(=O)N2CCC(N3C(=O)C(C)(C)Cc4ncc(Cl)cc43)CC2)c(F)c1 [Example 44, (3R)-3-[2-(6-{[4-(7-Chloro-3,3-dimethyl-2-oxo-3,4-dihydro-1,5-naphthyridin-1(2H)-yl)piperidin-1-yl]carbonyl}-5-fluoropyridin-3-yl)-4-fluorophenoxy]butanoic acid] | 3.4 | 55 |
| C[C@@H](COc1ccc(F)cc1-c1ccc(C(=O)N2CCC(N3C(=O)C(C)(C)Oc4ncc(Cl)cc43)CC2)c(F)c1)C(=O)O [Example 27, (2S)-3-[(4′-{[4-(7-Chloro-3,3-dimethyl-2-oxo-2,3-dihydro-1H-pyrido[2,3-b][1,4]oxazin-1-yl)piperidin-1-yl]carbonyl}-3′,5-difluorobiphenyl-2-yl)oxy]-2-methylpropanoic acid] | 6.5 | 36 |
| CC[C@@H](COc1ccccc1-c1ccc(C(=O)N2CCC(N3C(=O)C(C)(C)Oc4ncc(Cl)cc43)CC2)c(F)c1)C(=O)O [Example 10, (2S)-2-{[(4′-{[4-(7-Chloro-3,3-dimethyl-2-oxo-2,3-dihydro-1H-pyrido[2,3-b][1,4]oxazin-1-yl)piperidin-1-yl]carbonyl}-3′-fluorobiphenyl-2-yl)oxy]methyl}butanoic acid] | 8.4 | 47 |
| C[C@H](CC(=O)O)Oc1ccccc1-c1ccc(C(=O)N2CCC(N3C(=O)C(C)(C)Oc4ncc(Cl)cc43)CC2)c(Cl)c1 [Example 19, (3R)-3-[(3′-Chloro-4′-{[4-(7-chloro-3,3-dimethyl-2-oxo-2,3-dihydro-1H-pyrido[2,3-b][1,4]oxazin-1-yl)piperidin-1-yl]carbonyl}biphenyl-2-yl)oxy]butanoic acid] | 7.5 | 64 |
| C[C@H](CC(=O)O)Oc1ccccc1-c1cnc(C(=O)N2CCC(N3C(=O)C(C)(C)Cc4ncc(Cl)cc43)CC2)c(F)c1 [Example 38, (3R)-3-[2-(6-{[4-(7-Chloro-3,3-dimethyl-2-oxo-3,4-dihydro-1,5-naphthyridin-1(2H)-yl)piperidin-1-yl]carbonyl}-5-fluoropyridin-3-yl)phenoxy]butanoic acid] | 2 | 52 |
| C[C@@H](COc1ccccc1-c1cnc(C(=O)N2CCC(N3C(=O)C(C)(C)Cc4ncc(Cl)cc43)CC2)c(F)c1)C(=O)O [Example 46, (2S)-3-[2-(6-{[4-(7-Chloro-3,3-dimethyl-2-oxo-3,4-dihydro-1,5-naphthyridin-1(2H)-yl)piperidin-1-yl]carbonyl}-5-fluoropyridin-3-yl)phenoxy]-2-methylpropanoic acid] | 1.8 | 31 |
| CCc1cnc2c(c1)N(C1CCN(C(=O)c3ccc(-c4ccccc4O[C@H](C)CC(=O)O)cc3F)CC1)C(=O)C(C)(C)O2 [Example 53, (3R)-3-[(4′-{[4-(7-Ethyl-3,3-dimethyl-2-oxo-2,3-dihydro-1H-pyrido[2,3-b][1,4]oxazin-1-yl)piperidin-1-yl]carbonyl}-3′-fluorobiphenyl-2-yl)oxy]butanoic acid] | 6.4 | 44 |
| C[C@H](CC(=O)O)Oc1ccccc1-c1ccc(C(=O)N2CCC(N3C(=O)[C@H](C)Oc4ncc(Cl)cc43)CC2)c(F)c1 [Example 28, (3R)-3-{[4′-({4-[(3S)-7-Chloro-3-methyl-2-oxo-2,3-dihydro-1H-pyrido[2,3-b][1,4]oxazin-1-yl]piperidin-1-yl}carbonyl)-3′-fluorobiphenyl-2-yl]oxy}butanoic acid] | 1.8 | 74 |
| C[C@H](CC(=O)O)Oc1ccccc1-c1cc(F)c(C(=O)N2CCC(N3C(=O)C(C)(C)Oc4ncc(Cl)cc43)CC2)c(F)c1 [Example 51, (3R)-3-[(4′-{[4-(7-Chloro-3,3-dimethyl-2-oxo-2,3-dihydro-1H-pyrido[2,3-b][1,4]oxazin-1-yl)piperidin-1-yl]carbonyl}-3′,5′-difluorobiphenyl-2-yl)oxy]butanoic acid] | 7.7 | 75 |
| C[C@H](CC(=O)O)Oc1ccccc1-c1ccc(C(=O)N2CCC(N3C(=O)C(C)(C)Cc4ncc(Cl)cc43)CC2)c(F)c1 [Example 5, (3R)-3-[(4′-{[4-(7-Chloro-3,3-dimethyl-2-oxo-3,4-dihydro-1,5-naphthyridin-1(2H)-yl)piperidin-1-yl]carbonyl}-3′-fluorobiphenyl-2-yl)oxy]butanoic acid] | 3.4 | 70 |
